Measured values taken from US20040116385A1, “Treating and preventing viral infections with porphyrin-based compounds” (priority 2002, published 2004).

What was measured:
HIV-1 strain 89.6 = experiment: In vitro virucidal activity against HIV-1 strain 89.6 (assay of A. Vzorov et al. 2002); type: cell-based; settings: 0% = no infective particles remained
Method: (§1) Porphyrins 16, 31, and 33 have been assayed for in vitro virucidal activity against HIV-1 using the assay of A. Vzorov et al. (2002) (full citation below). The assay was conducted on two different strains of HIV-1, strain IIIB, and strain 89.6. The figures in the table denote the percentage of viral particles that were still infective following treatment.

[1] = system: supercoiled DNA substrate φX174; experiment: Supercoiled DNA nicking assay (DNA photodamage); type: biochemical; settings: for Form II (nicked) DNA produced in the dark: samples kept in the dark; for phosphodiester breaks in supercoiled DNA, light-exposed versus dark: yellow light 100 W bulb, 30 cm, 30 minutes
Excerpt: In the first test to determine the ability of a porphyrin to induce DNA photodamage, we used a supercoiled DNA substrate that migrates rapidly as a single band in agarose gels, but migrates much more slowly if the DNA sustains as little as a single phosphodiester break or nick. Using this technique, we examined the ability of porphyrins 16, 31 and 33 to nick the supercoiled DNA substrate φX174. The porphyrin—DNA mixtures were shielded from light until just prior to the nicking assay, at which time half of each sample remained in the dark, while the other half was exposed to yellow light from a 100 W bulb at a distance of 30 cm for 30 minutes, at room temperature. The samples were then incubated for 30 min at room temperature in the dark, and the products of the reaction were then electrophoresed on a 1% agarose gel and stained.

[2] = system: human leukemia K562 cells; experiment: Alkaline Comet assay; type: cell-based; settings: yellow light 100 W bulb 5 minutes, versus dark and light-only controls
Method: The second test, the alkaline Comet assay, is a sensitive technique for determining the presence of single- and double-strand breaks and other DNA lesions such as baseless sites. Human K562 cells were incubated with porphyrins 16, 31, and 33, and were then either exposed to a source of yellow light from a 100 W bulb for 5 minutes at room temperature or kept in the dark. The cells were then immobilized on agarose slides, lysed, exposed to alkaline buffer, electrophoresed, and stained for visualization.

[3] = mouse, in vivo
HIV-1 strain IIIB = experiment: In vitro virucidal activity against HIV-1 strain IIIB (assay of A. Vzorov et al. 2002); type: cell-based; settings: 0% = no infective particles remained
Method: as §1

[4] = system: V79 hamster fibroblast cells
Excerpt: We have also determined the cytotoxicity of porphyrins 4, 16, 18, and 31 in V79 hamster fibroblast cells using a clonogenic assay.

HIV-1 = settings: preliminary experiments
[5] = system: 9L, U-373MG and B16 cells; experiment: Concentration-dependent cellular uptake; type: cell-based; settings: cells exposed to 1, 5, and 10 μM for 24 hours
Method: The concentration-dependent uptake of compounds 4, 6, 10, and 12 was investigated in cells exposed to 1, 5, and 10 μM concentrations of the porphyrins for 24 hours. The concentration of intracellular-bound porphyrin was determined by chemical extraction of washed cell monolayers, followed by spectrophotometric or ICP-MS determinations, or both. The uptake values for 9L and U-373MG cells were very similar, and exceeded that for B16 cells. The porphyrin accumulation was invariably observed to increase with increasing concentration of the compound.

[6] = system: Human glioblastoma U373 MG cells; experiment: Dark cytotoxicity assay, U-373 MG cells; type: cell-based; settings: 24 hour exposure, read-out: IC50 (dark toxicity)
Method: (§2) Human glioblastoma U373 MG, hamster V79 fibroblast, and mouse melanoma B16 cells were obtained from the American Type Culture Collection. Rat gliosarcoma cells were kindly provided by the University of California at San Francisco Brain Tumor Research Group. All cells were maintained in log phase monolayer cultures with RPMI 1640 supplemented with 10% fetal bovine serum and 2 mM glutamine.
(§3) Cells were seeded in 96-well culture plates, and were allowed to settle and attach for 24-48 hours. Triplicate wells were then exposed to twofold serial dilutions of test compounds at concentrations up to 250 μM. Compounds 4, 6, 10, and 12 in crystalline form were carefully weighed and dissolved in 100% DMSO to prepare stock solutions. Subsequent dilutions were performed directly in the culture medium just before the medium was administered to cells. After short-term (2 hour) or long-term (24 hour) exposure, cells were washed, and the wells were refilled with fresh culture medium. For dark toxicity trials, cells were allowed to proliferate for an additional 48-72 hours. For phototoxicity trials, washed cells were irradiated for 10 minutes with broad spectrum (600-700 nm) red light, and were then returned to an incubator for 48-72 hours.

Rat gliosarcoma 9L cells = experiment: Dark cytotoxicity assay, 9L cells; type: cell-based; settings: 24 hour exposure, read-out: IC50 (dark toxicity)
Method: as §2, §3

[7] = system: 9L, U-373 MG and B16 cells; experiment: Phototoxicity assay (red light irradiation); type: cell-based; settings: irradiation with broad spectrum (600-700 nm) red light 10 minutes
Method: as §2, §3

Substance | percentage of viral particles that were still infective following treatment (HIV-1 strain 89.6) [%] | Form II (nicked) DNA produced in the dark [1] | phosphodiester breaks in supercoiled DNA, light-exposed versus dark [1] | DNA damage (Comet tail) after light exposure [2] | maximum tolerated dose [3] | percentage of viral particles that were still infective following treatment (HIV-1 strain IIIB) [%] | CS50 [4] [µM] | activity against HIV-1 in vitro (HIV-1) | uptake relative to the corresponding Zn(II) complexes [5] | IC50 [6] [µM] | IC50 (Rat gliosarcoma 9L cells) [µM] | IC50 ([7]; 2-hour exposure) [µM] | IC50 ([7]; 24-hour exposure) [µM]
5,15-bis[bis-3,5-(1-methyl-nido-carboranyl)methylphenyl]porphyrin tetrapotassium salt [Compound 31] | 2 | little Form II DNA | significantly more effective | light-activated DNA damage | exceeded 300 mg per kg of body weight | 9 | > 300 | high levels of activity |  |  |  |  | 
Zn(II)-5,15-bis[bis-3,5-(1-methyl-nido-carboranyl)methylphenyl]porphyrin tetrapotassium salt [Compound 33] | 4 | little Form II DNA | significantly more effective | light-activated DNA damage | exceeded 300 mg per kg of body weight | 0 |  | high levels of activity |  |  |  |  | 
Zn(II)-meso-tetra[4-(1-methyl-nido-carboranyl)methylphenyl]porphyrin tetrapotassium salt [Compound 6] |  |  |  |  | exceeded 300 mg per kg of body weight |  |  |  |  |  |  |  | 
Zn(II)-meso-tetra[4-(nido-carboranyl)phenyl]porphyrin tetrapotassium salt [Compound 18] |  |  |  |  |  |  | > 300 |  |  |  |  |  | 
meso-tetra[3-(1-methyl-nido-carboranyl)methylphenyl]porphyrin tetrapotassium salt [Compound 10] |  |  |  |  |  |  |  |  | approximately four times greater | ~150 | ~150 |  | 
meso-tetra[4-(1-methyl-nido-arboranyl)methylphenyl]porphyrin tetrapotassium salt [Compound 4] |  |  |  |  | exceeded 300 mg per kg of body weight |  | > 300 |  | approximately four times greater | ~150 | ~150 | ~50 | ~1.5
meso-tetra[4-(nido-carboranyl)phenyl]porphyrin tetrapotassium salt [Compound 16] | 0 | little Form II DNA | significantly more effective | light-activated DNA damage | exceeded 300 mg per kg of body weight | 4 | > 300 | high levels of activity |  |  |  |  | 
